From patent publication US7235689B2, “Hydroxamic acid derivatives having anti-inflammatory action” (Italfarmaco SpA, priority 2003, dated 2007)
pIC50: −log10 of the molar value.

Key:
[1] = tested on: TNFα production in human monocytes stimulated with LPS; experiment: Inhibition of TNFα production in human monocytes stimulated with LPS (in vitro); format: cell-based; conditions: Monocyte; human mononuclear peripheral blood cells, LPS 10 ng/ml, 24 hours, ELISA; average of at least two determinations
Procedure: The compounds were dissolved in DMSO to a final concentration of 120 mM and were stored at −80° C. The solutions for the test were prepared by diluting the mother solutions in RPMI 1640 with the addition of 1% FCS and 0.01% DMSO and were filtered with 0.2 μm filters.
Mononuclear peripheral blood cells were obtained from “buffy coats” of healthy donors by separation in a Ficoll-Hypaque gradient. The cells were spread in plates with 96 wells at a concentration of about 500,000 cells per well, suspended in RPMI 1640 containing 1% FCS and were incubated at 37° C. in the presence of various concentrations (from 10^−6 to 10^−11 M) of the compounds to be tested.
After 1 hour, LPS was added (to a final concentration of 10 ng/ml; obtained from E. coli 055:B5) and the plates were incubated at 37° C. for a further 24 hours. Upon completion, the supernatant fluids were collected and used for the determination of the TNFα content by ELISA (ELISA Duoset Kit; R&D systems, Minneapolis, Minn., USA).
The concentration of TNFα was calculated with the use of a calibration curve and the IC50 values (concentration which inhibits the production of the cytokine by 50%) were calculated from the curve obtained, giving the percentage inhibition values for each individual concentration of the compound under test.
The values obtained for the compounds described in the preceding examples are given in the following table (the values are the average of the results obtained in at least two determinations, performed with cells of different donors).

[2] = tested on: TNFα production; experiment: Inhibition of TNFα production in mice induced by LPS (in vivo); conditions: CD1 female mice, 1 mg/kg orally 60 min. prior to LPS 2 mg/kg i.p., blood TNFα 90 min. after LPS
Procedure: For the compounds of the present invention, the capacity to inhibit TNFα production induced by the administration of LPS was evaluated in mice.
A lethal quantity of LPS (E. coli 055:B5; 2 mg/kg) was administered to the animals (CD1 female mice) by an intraperitoneal route; 90 min. after administration, the animals were killed and the TNFα content present in the blood was determined by ELISA assay.
The compounds under test, suspended in Methyl Cellosolve (0.5% in water), were administered orally, 60 min. prior to the administration of LPS, at a dose of 1 mg/kg.
The results are given in the following table; the values are expressed as percentage inhibition of TNFα production in comparison with the control group.

[3] = Metabolic resistance in vitro, S9 liver fraction; format: in vitro ADME; conditions: 6 μg/ml, 37° C., phosphate buffer pH 7.4, S9 fraction protein content 2 mg/ml
Procedure: The metabolic resistance of some compounds described in the preceding examples was evaluated by incubating the substances with the S9 fraction of a microsomal preparation of liver cells. Each compound (6 μg/ml) was incubated at 37° C. for 30 min. in phosphate buffer (pH 7.4) containing the S9 fraction (protein content 2 mg/ml). The reaction was stopped by cooling in an ice bath and adding an equal volume of water/acetonitrile (50:50) containing 0.2% of trifluoroacetic acid. After centrifuging, an aliquot of the supernatant fluid was analyzed by HPLC to evaluate the percentage of product that had remained intact.

[4] = tested on: human HEP-G2 hepatoma cell line; experiment: Cytotoxicity in vitro on HEP-G2 cells (formazane colorimetric assay); format: cell-based; conditions: 48 h
Procedure: The cytotoxicity of some compounds described in the preceding examples was evaluated in vitro on the human HEP-G2 hepatoma cell line by a commercial colorimetric method (Cell Titer 96® Aqueous One Solution Cell Proliferation Assay—Promega); the method determines the number of living cells on the basis of their ability to metabolize a tetrazolium salt producing formazane. The quantity of formazane produced is proportional to the number of living cells.
The HPE-G2 cells were distributed in micro-plates with 96 wells at a density of 4×10^4 cells/well (100 μl) in M199 medium containing 10% of bovine foetal serum and supplements (complete medium).
After incubation for 24 h (37° C., 5% CO2, 90% humidity) the cells were washed once and the medium was replaced with 200 μl of complete medium containing the substances to be tested at final concentrations of 10^−5, 10^−6 and 10^−7 M. The test was performed in triplicate.
The plates were incubated for a further 48 h, after which 100 μl of medium was removed and 20 μl per well of dye solution was added in accordance with the supplier's instructions. The optical density (λ=490 nm) was read after incubation for 1 h at 37° C. with the use of a plate reader (Victor 2—Wallace Perkin Elmer).
The results are expressed as the percentage inhibition of the formation of formazane in comparison with the control.

[5] = target: mouse HDAC-1 enzyme (Mus musculus, UniProt O09106); experiment: Inhibition of the enzymatic activity of histone deacetylase; format: biochemical
Procedure: The capacity of the compounds of the invention to inhibit the activity of the histone deacetylase enzyme was evaluated with the use of the mouse HADC-1 enzyme. The assay was performed by the method already described in the literature [Biochem. Biophys. Acta, 1996, vol. 1296, p. 181]. The IC50 values (concentration which inhibits the activity of the enzyme by 50%) were derived from the percentages of inhibition obtained with various concentrations of the compound under test; these values are given in the following table.

Chain of mouse HDAC-1 enzyme (O09106 whole entry): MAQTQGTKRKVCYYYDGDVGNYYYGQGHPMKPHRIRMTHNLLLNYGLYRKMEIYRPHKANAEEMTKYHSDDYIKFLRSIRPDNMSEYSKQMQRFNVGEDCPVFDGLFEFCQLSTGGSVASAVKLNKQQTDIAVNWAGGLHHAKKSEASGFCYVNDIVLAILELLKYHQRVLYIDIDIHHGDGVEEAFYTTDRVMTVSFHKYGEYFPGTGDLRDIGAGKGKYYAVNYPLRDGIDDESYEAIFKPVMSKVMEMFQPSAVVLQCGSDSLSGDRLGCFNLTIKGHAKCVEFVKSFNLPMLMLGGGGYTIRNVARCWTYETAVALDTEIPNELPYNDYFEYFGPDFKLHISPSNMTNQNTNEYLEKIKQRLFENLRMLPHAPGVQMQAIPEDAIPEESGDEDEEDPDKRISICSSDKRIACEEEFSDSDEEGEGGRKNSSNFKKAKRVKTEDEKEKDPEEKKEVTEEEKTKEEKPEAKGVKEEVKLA

SMILES	pIC50 [1]	Residual product after 30 min. [3] [%]	pIC50 [5]	Inhibition of TNFα production in comparison with the control group [2] [%]	Cytotoxicity at 10^−6 M (percentage inhibition of the formation of formazane) [4] [%]
O=C(CCc1cc(C(F)(F)F)cc(C(F)(F)F)c1)Nc1ccc(C(=O)NO)cc1 [Ex. 06, N-hydroxy-4-[3-(3,5-bis-trifluoromethyl-phenyl)-propionyl-amino]-benzamide]	7.77	68.4	7.72	–	13
CCOc1ccc(CC(=O)Nc2ccc(C(=O)NO)cc2)cc1 [Ex. 05, N-hydroxy-4-[2-(4-ethoxy-phenyl)-acetylamino]-benzamide]	7.49	89.0	7.05	–	0
O=C(Cc1ccc(-c2ccccc2)cc1)Nc1ccc(C(=O)NO)cc1 [Ex. 12, N-hydroxy-4-[2-(diphenyl-4-yl)-acteylamino]-benzamide]	6.64	–	8.15	–	–
O=C(Cc1cccc(Oc2ccccc2)c1)Nc1ccc(C(=O)NO)cc1 [Ex. 11, N-hydroxy-4-[2-(3-phenoxy-phenyl)-acetylamino]-benzamide]	6.97	–	6.99	–	–
CC(CC(=O)Nc1ccc(C(=O)NO)cc1)c1ccccc1 (stereo not drawn) [Ex. 02, N-hydroxy-4-(3-phenyl-butyrylamino)-benzamide]	7.12	–	–	–	–
O=C(Cc1cccc(C(F)(F)F)c1)Nc1ccc(C(=O)NO)cc1 [Ex. 09, N-hydroxy-4-[2-(3-trifluoromethyl-phenyl)-acetylamino]-benzamide]	7.15	–	7.17	–	–
O=C(Cc1ccccc1Oc1ccccc1)Nc1ccc(C(=O)NO)cc1 [Ex. 16, N-hydroxy-4-[2-(2-phenoxy-phenyl)-acetylamino]-benzamide]	6.59	–	6.93	–	–
COc1cccc(CC(=O)Nc2ccc(C(=O)NO)cc2)c1OC [Ex. 13, N-hydroxy-4-[2-(2,3-dimethoxy-phenyl)-acetylamino]-benzamide]	6.73	–	6.69	–	–
COc1ccc(CC(=O)Nc2ccc(C(=O)NO)cc2)cc1 [Ex. 04, N-hydroxy-4-[2-(4-methoxy-phenyl)-acetylamino]-benzamide]	7.29	90.2	6.95	42	0
O=C(Cc1ccc([N+](=O)[O-])cc1)Nc1ccc(C(=O)NO)cc1 [Ex. 15, N-hydroxy-4-[2-(4-nitro-phenyl)-acteylamino]-benzamide]	7.57	–	6.84	–	0

The remaining compounds from weak to strong by pIC50 [1], led by results:

pIC50 [1]	Residual product after 30 min. [3] [%]	pIC50 [5]	SMILES	Inhibition of TNFα production in comparison with the control group [2] [%]	Cytotoxicity at 10^−6 M (percentage inhibition of the formation of formazane) [4] [%]
6.00	–	6.67	O=C(Cc1ccccc1[N+](=O)[O-])Nc1ccc(C(=O)NO)cc1 [Ex. 19, N-hydroxy-4-[2-(2-nitro-phenyl)-acetylamino]-benzamide]	–	–
6.41	–	6.95	O=C(Cc1ccccc1OCc1ccccc1)Nc1ccc(C(=O)NO)cc1 [Ex. 18, N-hydroxy-4-[2-(2-benzyloxy-phenyl)-acetylamino]-benzamide]	–	–
6.49	–	7.24	CSc1ccc(CC(=O)Nc2ccc(C(=O)NO)cc2)cc1 [Ex. 08, N-hydroxy-4-[2-(4-methylsulphanil-phenyl)-acetylamino]-benzamide]	–	–
6.55	–	6.59	COc1cc(CC(=O)Nc2ccc(C(=O)NO)cc2)c([N+](=O)[O-])cc1OC [Ex. 17, N-hydroxy-4-[2-(4,5-dimethoxy-2-nitro-phenyl)-acetylamino]-benzamide]	–	–
6.80	–	6.97	O=C(CCc1ccccc1OC(=O)c1ccccc1)Nc1ccc(C(=O)NO)cc1 [Ex. 14, 2-[2-(4-hydroxycarbamoyl-phenylcarbamoyl)-ethyl]-phenyl ester of benzoic acid]	–	–
6.87	–	6.89	O=C(Cc1cccc([N+](=O)[O-])c1)Nc1ccc(C(=O)NO)cc1 [Ex. 10, N-hydroxy-4-[2-(3-nitro-phenyl)-acetylamino]-benzamide]	–	–
7.35	–	7.85	COc1cc(CC(=O)Nc2ccc(C(=O)NO)cc2)cc(OC)c1OC [Ex. 07, N-hydroxy-4-[2-(3,4,5-trimethoxy-phenyl)-acetylamino]-benzamide]	–	–
7.59	60.7	6.66	COc1cccc(CCC(=O)Nc2ccc(C(=O)NO)cc2)c1 [Ex. 03, N-hydroxy-4-[3-(3-methoxy-phenyl)-propionylamino]-benzamide]	56	7.3
7.84	78.9	6.85	O=C(Cc1ccc(C(F)(F)F)cc1)Nc1ccc(C(=O)NO)cc1 [Ex. 01, N-hydroxy-4-[2-(4-trifluoromethyl-phenyl)-acetylamino]-benzamide]	67	3.8
